Experimental findings from patent US4221794A, “Method of imparting immunomodulating and antiviral activity” (Newport Pharmaceuticals International, Inc., priority 1979, dated 1980) are described below.

Where “and” joins values, the source holds several entries; their conditions need not be identical. Identical values can stand only once. Counter-ions that a name gives are not always drawn. Like-named read-outs stand apart in the source and are kept apart here.

The test system of assay [1] is influenza virus. Kind of assay: microbe, parasite or virus in culture. In kind it is cell-based, influenza virus Type A/USSR 90 (HeLa cell cultures). Particulars: for inhibition at 10 µg/mL / inhibition at 100 µg/mL: unidentified influenza virus; for inhibition at 10 µg/mL: read-out: % Inhibition of Hemadsorption Foci, Test Compound Conc. <10 μg/ml; for inhibition at 100 µg/mL: read-out: % Inhibition of Hemadsorption Foci, Test Compound Conc. >100 μg/ml.

Assay [2] relates to (Russian) influenza virus. Kind of assay: Inhibition of influenza virus replication, Russian. In kind it is cell-based.
Another assay has as its system mouse lymphocytes. Description: Mitogen (Con A) induced mouse lymphocyte (spleen cell) proliferation. In kind it is cell-based. To be noted: for Maximum Percent Change, Mitogen Induced (Con A) Mouse Lymph. Prolif.: plus = immunostimulating, minus = immunoinhibiting, 0 = neither. The text has this: (§1) The following three assay procedures are used to evaluate the ability of the test substances to modulate the activity of several classes of cells in the immune system. In these systems it is possible to identify both immunopotentiating activity (evidence by an enhancement of the parameter examined) as well as immunosuppressant activity (evidenced by an inhibition of the parameter examined).
1. Mitogen-Induced Mouse Spleen Cell Assay
Mouse spleen cells contain a population of both B and T lymphocytes which can be stimulated by a number of foreign substances (e.g., plant mitogens such as Con A) to proliferate. This enhanced proliferation is an indication of enhanced cell mediated immunity. The method below describes the system used to evaluate test substances as immunopotentiators.
Concanavalin A (Calbiochem, La Jolla, California), Lot #210073, lyophilized in NaCl, was prepared first as a 1% solution and diluted as a 2×concentration for each dilution (0.5, 1.0, 2.5 μg/ml).
Six to eight week old male Balb/c and C3 H inbred mice were obtained from the following sources: Flow Research Animals, Inc., Dublin, Virginia; Charles River Breeding Laboratories, Wilmington, Massachusetts; Laboratory Supply Company, Indianapolis, Indiana; and Lionel Strong Foundation, San Diego, California.
Three to five mice were sacrificed by cervical dislocation and the spleens aseptically removed. Pooled spleens were minced and teased with sterile forceps; then strained through a double layer of nylon mesh. The cell suspension was washed once with 15 ml of RPMI 1640 supplemented with 5% fetal calf serum and antibiotics. Cells were cultured at a concentration of 10^6 cells/0.1 ml/well in micro-plates. Cultures were incubated in the presence or absence of mitogen in a humidified atmosphere containing 5% CO2 for 48 hours. The test compound was added to cultures at various concentrations concommitant with mitogen.
Proliferation was assayed by the degree of incorporation of 1.0 μCi of [^3 H] thymidine over an 18 hour incubation period. Cultures were harvested by a MASH unit (Otto Hiller Co., Madison, Wisconsin) and thymidine incorporation was assayed by liquid scintillation spectrometry. Cultures were performed in triplicate and data are expressed as means plus or minus the standard error of the experimental means. Drug stimulation indices over control values were also calculated and portrayed graphically.
(§2) Table 4 above presents the results of an evaluation of a number of these subject compounds as potentiators of the immune response. Three different test systems were used. The first involves a measure of the ability of the test compound to enhance the ability of mouse lymphocytes to proliferate in response to a plant mitogen (Con A). The second involves measuring the ability of the test compounds to enhance human lymphocyte proliferation in response to a second plant mitogen (PHA). The third system measures the ability of these test substances to enhance macrophage proliferation in response to a natural lymphokine (MMF, Macrophage Mitogenic Factor).

Assay [3] deals with human peripheral blood lymphocytes. Kind of assay: Mitogen (PHA) induced human lymphocyte proliferation. Type of assay: cell-based. To be noted: plus = immunostimulating, minus = immunoinhibiting, 0 = neither.
Assay [4] concerns influenza virus. Kind of assay: Anti-influenza activity (overall). Type of assay: cell-based, several strains of A and B sub-types. To be noted: for anti-influenza activity (in words): compound by itself; for inhibit the replication of different strains of influenza virus (number of strains): concentrations ranging from 1-150 μg/ml.
The subject of assay [5] is Influenza A Swine 1976 (Hlsw -N1). In kind it is cell-based.
Another assay has as its system guinea pig macrophages. Description: Lymphokine (MMF) induced guinea pig macrophage proliferation. In kind it is cell-based. To be noted: plus = immunostimulating, minus = immunoinhibiting, 0 = neither. The method, then:
3. The macrophage represents a subpopulation of white blood cells which is an important component of the immune system in control of both cellular and humoral immunity. The assay system described below evaluates the substances studied as potentiators of macrophage function.
Phytohemagglutinin (PHA) (HA-17) was purchased from Burroughs Wellcome. A preparation containing Macrophage Mitogen Factor (MMF) and Macrophage Activating Factor (MAF) was prepared from antigen-stimulated immune lymph node lymphocytes (guinea pig) as previously described by Hadden et al, Nature 257, 483-485 (1975). […] The active fraction was employed in both the proliferation and activation assays.
Ficoll-hypaque purified human peripheral blood lymphocytes were prepared and PHA-induced lymphocyte proliferation was assayed by the incorporation of tritiated thymidine as described in Hadden et al., Cell. Immunol. 20, 98-103 (1975). Each compound was analyzed in the presence of suboptimal, optimal and supraoptimal concentrations of PHA (0.001, 0.01, 0.1 units/ml respectively). Paraffin oil-induced guinea pig peritoneal macrophages were prepared and incubated as monolayer culture (>98% pure macrophages). Lymphokine (MMF)-induced proliferation was assayed by the incorporation of tritiated thymidine at 3 and 5 days of culture as described, Hadden et al, Nature 257, 483-485 (1975). Lymphokine (MAF)-induced macrophage activation to kill Listeria monocytogenes following 5 days of culture in the presence or absence of MAF was performed during a 6 hour period as described in Hadden and England, Immunopharmacology, pages 87-100 (Plenum Press, 1977). Phagocytosis was quantitated during a 20-minute exposure to Listeria monocytogenes by counting the number of macrophages containing bacteria and the number of bacteria per phagocytic cell on gram stained monolayers in Labtek chambers. Intracellular killing of bacteria was evaluated by counting the number of cells containing bacteria and the number of bacteria/cell 6 hours after the initial 20 minute exposure. Parallel experiments in which macrophages were lysed and intracellular bacteria were cultured confirm the validity of bacterial activity determined by this manner in this system. The drugs were employed in each of the three systems over serial log concentration range in triplicate in the presence and absence of mitogen or lymphokine. Each type of experiment was performed at least three times. Previous experiments indicate a parallelism of response to pharmacologic modulation in the proliferation and achivation assays.
as §2

A further assay has as its system L-1210 leukemic cells. Kind of assay: Anti-leukemic activity, inhibition of L-1210 growth. Type of assay: cell-based, mouse. To be noted: 96 hours. The method, then:
Anti-Leukemic Activity (Inhibition of L-1210 Growth)
Leukemic cells isolated from mice bearing the L-1210 tumor are cultured in vitro and their growth can be measured by counting the number of cells in the culture over a period of time. The incorporation of a test substance into the media will prevent the growth of the leukemic cells, an indication of an effective anti-leukemic agent.
I50 (concentration of drug inhibiting growth of L-1210) by % for the tested compounds was as follows:
To Measure Inhibition of Leukemic Cell (L-1210) Growth
Check to see that there is adequate cell growth in the stock cultures. Use cells 48-72 hours after transfers are done.
Weigh out the drugs at 50 times the desired final concentration and made serial dilutions.
Make up the final medium using 500 mls McCoy's 5A medium, 15% fetal calf serum, 5 mls penicillin-streptomycin solution, and 5 mls antibiotic-antimycotic solution and let it stand at room temperature.
Using sterile technique, add 0.1 ml of the drug dilutions to each tube.
Add an appropriate quantity of cells to the prepared medium. After mixing, remove a 0.5 ml sample, place it in a vial containing […] of saline, and count it on the Coulter Counter. Multiply the count by 40 to compensate for the 40 fold dilution (0.5 ml into […] and record the inoculum.
Add 5 mls of cell suspension to each tube. Swirl the bottle every 4 tubes to insure a more uniform distribution of cells.
Tighten the caps and place in the CO2 incubator at 36°-38° for 96 hours.
After 96 hours remove the tubes from the incubator and count the contents of each on the Coulter Counter. Multiply all counts by 40 and average the four counts for each drug dilution. If the count is less than the inoculum, record 100% inhibition. If the count is greater than the average of the eight control counts, record 0% inhibition. For all other counts use the following formula: [formula] 100%-% servival=inhibition of growth due to treatment.

The next assay relates to immune response. Kind of assay: Immunomodulating activity (overall). In kind it is cell-based.
Excerpt: as §1, §2

Setting [6] is: 1.0-10 (unit not printed), listed as 15417.
[7] abbreviates: 1.0-10 (unit not printed), listed as 15418.

As to `CCCCCC[C@H]([C@H](C)O)n1cnc2c(N)ncnc21` (relative stereo) [NPT 15426, ERYTHRO-9-(2-HYDROXY-3-NONYL)-ADENINE. HCl], the inhibition at 10 µg/mL in the assay with influenza virus [1] is 50%. Moreover, the inhibition at 100 µg/mL with influenza virus [1] is 100%. Also, the “% Inhibition” value is given as 20-30% in [2] (0.1-1.0 μg/ml), 30-50% in assay [2] (1.0-10 μg/ml), 50-70% in assay [2] (10-100 μg/ml) and 50-70% in assay [2] (>100 μg/ml). Further, the “% Stimulation, Mitogen Induced Murine Lymphocyte Proliferation” value (from here on “% Stimulation”) in the assay with mouse lymphocytes (01-1.0 μg/ml), in the assay on mouse lymphocytes (1.0-10 μg/ml) and in the assay with mouse lymphocytes (10-100 μg/ml) was 0% each time. The results for the “Maximum Percent Change, Mitogen Induced (Con A) Mouse Lymph. Prolif.” value with mouse lymphocytes (1.0-10 (unit not given)), with mouse lymphocytes (10-100 (unit not given)) and with mouse lymphocytes (.01-1.0 (unit not given)) were -85%, -91% and -50%, respectively. For the same molecule, the entries for the “Maximum Percent Change, Mitogen Induced (PHA) Human Lymph. Prolif.” value in [3] (1.0-10 (unit not given)) and in assay [3] (.01-1.0 (unit not given)) were -41% and 6%, respectively. Also, the “anti-influenza activity (in words)” value in the assay with influenza virus [4] is on record as “significant anti-influenza activity”.

As for `CCCCCCC(CO)n1cnc2c(=O)[nH]cnc21` (stereo not drawn) [NPT 15417], in the assay with influenza virus [1], the inhibition at 10 µg/mL was 18%. Also, the inhibition at 100 µg/mL with influenza virus [1] came to 60%. For the same molecule, the “% Inhibition” value in assay [5] (listed as 15417) was 50-70% and > 70%. Moreover, the “% Stimulation” value was determined as 0% in the assay on mouse lymphocytes (01-1.0 μg/ml, listed as 15417); 0% with mouse lymphocytes (1.0-10 μg/ml, listed as 15417); 0% in the assay on mouse lymphocytes (10-100 μg/ml, listed as 15417); 0% with mouse lymphocytes (>100 μg/ml). Besides, the “Maximum Percent Change, Mitogen Induced (Con A) Mouse Lymph. Prolif.” value in the assay on mouse lymphocytes (setting [6]) amounted to 0%; in the assay with mouse lymphocytes (10-100 (unit not printed), listed as 15417), 0%; in the assay with mouse lymphocytes (.01-1.0 (unit not printed), listed as 15417) it was 0%. The “Maximum Percent Change, Mitogen Induced (PHA) Human Lymph. Prolif.” value in assay [3] (1.0-10 (unit not given)) is 0%; in [3] (10-100 (unit not given)) it was -50%; in assay [3] (.01-1.0 (unit not given)), 0%. Besides, the “Maximum Percent Change, Lymphokine Induced (MMF) Guinea Pig Mac. Prolif.” value in the assay on guinea pig macrophages (setting [6]) is on record as 13%; in the assay with guinea pig macrophages (10-100 (unit not given)), -50%. For the same molecule, the “anti-influenza activity (in words)” value in the assay with influenza virus [4] is listed as “significant anti-influenza activity”. The “inhibit the replication of different strains of influenza virus (number of strains)” value in the assay with influenza virus [4] was “at least 4 different strains”.

As to `CCCCCCC(CO)n1cnc2c(=O)[nH]cnc21` (stereo not drawn) [NPT 15418], the results for the “% Inhibition of Hemadsorption Foci” value in the assay on influenza virus [1] (Test Compound Conc. <10 μg/ml) and with influenza virus [1] (Test Compound Conc. >100 μg/ml) were 16% and 52%, respectively. In the assay with L-1210 leukemic cells, the “I50 (concentration of drug inhibiting growth of L-1210)” value came to 70 micrograms/ml. Further, the “% Inhibition” value in [5] (listed as 15418) is reported as > 70%. Also, the “% Stimulation” value was 20-30% with mouse lymphocytes (01-1.0 μg/ml, listed as 15418); > 50% in the assay on mouse lymphocytes (1.0-10 μg/ml, listed as 15418); 20-30% in the assay with mouse lymphocytes (10-100 μg/ml, listed as 15418). Besides, the “Maximum Percent Change, Mitogen Induced (Con A) Mouse Lymph. Prolif.” value in the assay with mouse lymphocytes (setting [7]) stood at 73%; in the assay with mouse lymphocytes (10-100 (unit not printed), listed as 15418), 26%; with mouse lymphocytes (.01-1.0 (unit not printed), listed as 15418) it was 41%. Also, the “potentiation of the immune response (in words)” value in the assay on immune response is “potentiation of the immune response has been observed”. Moreover, the “Potentiation of immunopotentiation by DIP.PAcBA salt” value in the assay with immune response (salt compared with parent compound) is recorded as “Yes”. For the same molecule, the “Maximum Percent Change, Lymphokine Induced (MMF) Guinea Pig Mac. Prolif.” value in the assay on guinea pig macrophages (setting [7]) is given as 80%; in the assay on guinea pig macrophages (.01-1.0 (unit not given)) it was 12%. Besides, the “potentiation of anti-influenza activity by DIP.PAcBA salt” value in the assay with influenza virus [4] was “does potentiate the anti-influenza activity and Yes”. Further, the “inhibit the replication of different strains of influenza virus (number of strains)” value with influenza virus [4] is recorded as “at least 4 different strains”.
